Literature values in US20090233891A1, “Pharmaceutical lotion comprising fluticasone propionate” (GLENMARK GENERICS LTD., priority 2008, published 2009).

CCC(=O)O[C@]1(C(=O)SCF)[C@H](C)C[C@H]2[C@@H]3C[C@H](F)C4=CC(=O)C=C[C@]4(C)[C@@]3(F)[C@@H](O)C[C@@]21C [Fluticasone propionate, S-(fluoromethyl) 6a, 9-difluoro-11β, 17-dihydroxy-16a-methyl-3-oxoandrosta-1,4-diene-17β-carbothioate, 17-propionate]
solubility in 95% ethanol (95% ethanol): slightly soluble | solubility in dimethyl sulfoxide (dimethyl sulfoxide): freely soluble | solubility in dimethylformamide (dimethylformamide): freely soluble | solubility in methanol (methanol): slightly soluble | solubility in water (water): practically insoluble
